Data on one molecule can be found in patent US20210308077A1, “COMBINATIONS INCLUDING BETA-ADRENORECEPTOR AGONISTS FOR TREATMENT OF PARKINSON`S DISEASE AND MOVEMENT DISORDERS” (The Brigham and Women`s Hospital, Inc., priority 2017, published 2021).

The nature of series [1]: pharmacokinetics mouse study (plasma and brain, LC-MS/MS). It is filed as in vivo. As for the experimental part:
The clenbuterol pharmacokinetic (PK) study was done in wild-type C57BL/6J male mice by ChemPartner Co., LTD in Shanghai. The study was done with 4 groups of four mice; one control group and three treatment groups with clenbuterol administered via intraperitoneal injection at dosages of 1, 5 and 10 mg/kg once every 24 hours. Following completion of the administration schedule, blood samples were collected at various time points (e.g. 0.25, 2, 8, and 24 hours), from the four mice per group per time point (final time point of 24 hours post injection). Mice were sacrificed following each blood collection and brains were removed and snap frozen. Substantia nigra was utilized for SNCA mRNA and protein analysis, whereas the other portions were used for PK studies. Plasma and brain samples were analyzed by LC-MS/MS for compound concentration at each of three concentrations and at each time point. Standard pharmacokinetic parameters (e.g. AUClast, AUCINF, terminal elimination half-life (t1/2), clearance, volume of distribution, time at maximum observed plasma concentration, etc.) were determined in both plasma and brain tissueby WinNonlin V 6.2 statistics software (Pharsight Corporation, California, USA) using a non-compartmental model.

Series [2] has as its system α-synuclein protein and SNCA mRNA. The series can be described thus: SNCA expression in SNCA-triplication iPSC-derived neuronal progenitor cells. The series is classed as cell-based, human. Particulars: SNCA-triplication NPCs, 20 μM. As for the experimental part:
The derivation and culture of the WIBR-IPS-αSyn^TRPLline has been described previously (27).
To initiate differentiation, iPSC colonies were pretreated for 30-60 min with 5 μM Y-27632, a ROCK inhibitor (Calbiochem). They were single cell-dissociated after 5-10 minute exposure to accutase (StemProAccutase; Life Technologies) and then re-suspended in neural base (NB) medium, which is DMEM/F12 (Gibco/Life Technologies) supplemented with 0.5% N2 and 1% B27 (Life Technologies). […]
Total RNA from flash-frozen mice brain tissue, rodent primary cells, human neuroblastoma cells and iPSC-derived neuronal cells was isolated using TRIzol® (Life Technologies) following the manufacturer's protocol. RNA concentration was measured using NanoDrop spectrophotometer (Thermo Fisher Scientific, Wilmington, De.). […] Quantitative PCR was performed using TaqMan Universal PCR Master Mix (Applied Biosystems) on an ABI 7900HT instrument (Applied Biosystems) as described previously (31). […] Expression values were analyzed using the comparative threshold cycle method (31). […]

Series [3] has as its system NPCs carrying the SNCA triplication. Briefly: Resazurin viability assay in SNCA-triplication NPCs exposed to rotenone. It is filed as cell-based, human. The settings on record: 20 μM rotenone, 20 μM clenbuterol. The protocol: Patient-derived NPCs carrying the familial SNCA triplication were generated as described previously (28). NPCs were seeded at […] in 96-well plates (Greiner Cellcoat μClear) for HTS plate reader analysis (Polarstar Omega, BMG). For experiments with toxicants and inhibitors, NPCs were cultured under the following conditions for 18 hours unless specified differently in the experiment procedures: Standard NPC growth medium, growth medium plus 20 μM rotenone (Sigma).
For the Plate Reader HTS, each experiment was conducted with 6 replicates per cell line and treatment regimen. NPCs were treated with 20 μM clenbuterol for four days. Signals from individual wells were acquired with integration of fluorescence signals over 1 second duration by bottom read in orbital mode (8-spot measurements with 2 mm radius). Data analysis was performed using BMG Mars software. For data analysis of individual experiments, the mean±SD was plotted using GraphPad7. Non-directional Student's t-test was used for direct statistical comparisons. […]
For the Resazurin assay for reduction potential by NADPH levels, NPCs were prepared as above and then loaded with 3 μM C12-Resazurin (Ex/Em: 563 nm/587 nm) (Life Technologies) in medium (see above), for 30 min at 37° C. […] Relative C12-Resazurin fluorescence intensities were normalized to Hoechst 33342 fluorescence.

Entries after “also recorded” stand apart in the source; their conditions may differ.

In the case of `CC(C)(C)NCC(O)c1cc(Cl)c(N)c(Cl)c1` (stereo not drawn) [clenbuterol], the brain concentration result in series [1] (C57BL/6J mice, 10 mg/kg intraperitoneal vs 1 and 5 mg/kg) was “highest”. Besides, the brain/plasma ratio result in series [1] (C57BL/6J mice, 1, 5, or 10 mg/kg intraperitoneal, 24 hours) was “increased with doses of 1, 5, or 10 mg of drug per kilogram body weight; also recorded: highest brain/plasma ratio”. The blood-brain barrier crossing result in series [1] (wild type C57BL/6J mice, intraperitoneal) is “crossed the blood-brain barrier”. In addition, the “SNCA mRNA expression” value in series [2] (3 days, P<0.005) was “significantly reduced”. The “endogenous α-synuclein protein” value in series [2] (4 days, P<0.05) is “significantly reduced”. Further, the viability entry in series [3] was “rescued viability”.
